The results in this text go back to patent publication US8367843B2, “Phenol derivative” (Fuji Yakuhin Co., Ltd., priority 2009, dated 2013).

Common to all, as to assay type: in vivo
For series [1], the system named is male Wistar/ST rats (pyrazinamide model). The experiment in a line: Uricosuric action in rat pyrazinamide model. As to conditions: urinary uric acid/creatinine ratio as percentage to control, test substance 30 mg/kg oral, 30 min after pyrazinamide 400 mg/kg, urine collected 2 to 3 hours after administration, read-out: Uricosuric action (control = 100). The procedure:
Uricosuric Action in Rat Pyrazinamide Model
Pyrazinamide suspended in a 0.5% methyl cellulose solution (0.5% MC) was orally administered to 7- and 8-week-old male Wistar/ST rats (4 rats per group) fasted for about 16 hours in a dose of 400 mg/kg. After 30 minutes, a test substance suspended in 0.5% MC was orally administered in a dose of 30 mg/kg, and urine was collected for 1 hour in a range from 2 to 3 hours after administration. At the beginning of collection of urine and after completion of collection of urine, rats were forced to urinate by pressing the abdomen of the rat. The concentration of uric acid and that of creatinine in urine were measured by a kit, and a ratio of the concentration of uric acid to that of creatinine was used as an indicator of a uricosuric action. The action of each test substance was expressed by percentage to control.

Series [2] in a line: Concentration of unchanged compound in urine in rat. As to conditions: 3 mg/kg oral, fasted male Wistar/ST rats, urine collected for 4 hours after administration, HPLC. The procedure: Concentration of Unchanged Compound in Urine in Rat
A test substance suspended in 0.5% MC was orally administered to two male Wistar/ST rats fasted for about 16 hours in a dose of 3 mg/kg. Immediately after administration, urine was collected for 4 hours. After completion of collection of urine, urine remaining in the bladder was completely excreted by pressing the abdomen of the rat. The concentration of an unchanged compound in urine was measured by HPLC and expressed by a molar concentration (μM).

Series [3] relates to male Wistar/ST rats (pyrazinamide model). Briefly: Uricosuric action in rat pyrazinamide model. Particulars: po, as above, but test substance 100 mg/kg.

For `CCSc1cc(C(=O)N2CS(=O)(=O)c3ccccc32)cc(C#N)c1O` [Example 34, 3-(3-cyano-5-ethylsulfanyl-4-hydroxybenzoyl)-1,1-dioxo-2,3-dihydro-1,3-benzothiazole], the response vs control in vivo at 30 mg/kg in series [1] was determined as 208%. Moreover, the “Concentration of unchanged compound in urine” value in series [2] turned out to be 23.5 µM.
On to `N#Cc1cc(C(=O)N2CS(=O)(=O)c3ccccc32)cc(C(F)(F)F)c1O` [Example 4, 3-(3-cyano-4-hydroxy-5-trifluoromethylbenzoyl)-1,1-dioxo-2,3-dihydro-1,3-benzothiazole], for which, in series [1], the response vs control in vivo at 30 mg/kg came to 201%. In addition, the “Concentration of unchanged compound in urine” value in series [2] was determined as 51.8 µM.
With `O=C(c1cc(F)c(O)c(Cl)c1)N1CS(=O)(=O)c2ccccc21` [Example 19, 3-(3-chloro-5-fluoro-4-hydroxybenzoyl)-1,1-dioxo-2,3-dihydro-1,3-benzothiazole], the response vs control in vivo at 30 mg/kg in series [1] was 129%. Besides, in series [2], the “Concentration of unchanged compound in urine” value turned out to be 55.2 µM.
The like results for `N#Cc1cc(C(=O)N2CS(=O)(=O)c3ccccc32)cc(C2CC2)c1O` [Example 13, 3-(3-cyano-5-cyclopropyl-4-hydroxybenzoyl)-1,1-dioxo-2,3-dihydro-1,3-benzothiazole] were, in that order, 172% and 3.9 µM.
On to `N#Cc1cc(C(=O)N2CSc3ccccc32)cc(C(F)(F)F)c1O` [Example 5, 3-(3-cyano-4-hydroxy-5-trifluoromethylbenzoyl)-2,3-dihydro-1,3-benzothiazole], for which the response vs control in vivo at 30 mg/kg in series [1] was 136%. Also, in series [2], the “Concentration of unchanged compound in urine” value was 1.1 µM.
Consider `CN(C)C(=O)c1cc(C(=O)N2CS(=O)(=O)c3ccccc32)cc(C(F)(F)F)c1O` [Example 27, 3-(3-dimethylcarbamoyl-4-hydroxy-5-trifluoromethylbenzoyl)-1,1-dioxo-2,3-dihydro-1,3-benzothiazole], for which the response vs control in vivo at 30 mg/kg in series [1] came to 146%. Besides, in series [2], the “Concentration of unchanged compound in urine” value worked out at 30.6 µM.
For the compound `CCc1cc(C(=O)N2CS(=O)(=O)c3ccccc32)cc(C#N)c1O` [Example 12, 3-(3-cyano-5-ethyl-4-hydroxybenzoyl)-1,1-dioxo-2,3-dihydro-1,3-benzothiazole], in series [1], the response vs control in vivo at 30 mg/kg is 187%. Moreover, the “Concentration of unchanged compound in urine” value in series [2] was 15.8 µM.
Consider `N#Cc1cc(C(=O)N2CS(=O)(=O)c3ccc(C(F)(F)F)cc32)cc(C(F)(F)F)c1O` [Example 38, 3-(3-cyano-4-hydroxy-5-trifluoromethylbenzoyl)-1,1-dioxo-5-trifluoromethyl-2,3-dihydro-1,3-benzothiazole], for which the response vs control in vivo at 30 mg/kg in series [1] stood at 180%. Further, in series [2], the “Concentration of unchanged compound in urine” value was determined as 16.4 µM.
`CC(C)Sc1cc(C(=O)N2CS(=O)(=O)c3ccccc32)cc(C#N)c1O` [Example 35, 3-(3-cyano-4-hydroxy-5-isopropylsulfanylbenzoyl)-1,1-dioxo-2,3-dihydro-1,3-benzothiazole]: the response vs control in vivo at 30 mg/kg in series [1] is 140%. For the same compound, the “Concentration of unchanged compound in urine” value in series [2] was determined as 1.5 µM.
With `O=C(c1cc(Cl)c(O)c(C(F)(F)F)c1)N1CS(=O)(=O)c2ccccc21` [Example 18, 3-(3-chloro-4-hydroxy-5-trifluoromethylbenzoyl)-1,1-dioxo-2,3-dihydro-1,3-benzothiazole], the response vs control in vivo at 30 mg/kg in series [1] was 202%. For the same compound, the “Concentration of unchanged compound in urine” value in series [2] was 1 µM.
For `CCCN(CCC)S(=O)(=O)c1ccc(C(=O)O)cc1` [Probenecid, reference compound], the response vs control in vivo at 30 mg/kg in series [1] was found to be 111%. Besides, the “Concentration of unchanged compound in urine” value in series [2] amounted to 0 µM. The compound also yielded a response vs control in vivo at 100 mg/kg in series [3] of 171%.
`O=C(c1cc(Cl)c(O)c(Cl)c1)N1CS(=O)(=O)c2ccccc21` [Example 1, 3-(3,5-dichloro-4-hydroxybenzoyl)-1,1-dioxo-2,3-dihydro-1,3-benzothiazole]: the response vs control in vivo at 30 mg/kg in series [1] was 169%. Also, in series [2], the “Concentration of unchanged compound in urine” value turned out to be 9.8 µM.
As to `N#Cc1cc(C(=O)N2CS(=O)(=O)c3ccccc32)cc(Cl)c1O` [Example 7, 3-(3-chloro-5-cyano-4-hydroxybenzoyl)-1,1-dioxo-2,3-dihydro-1,3-benzothiazole], the response vs control in vivo at 30 mg/kg in series [1] is 178%. The “Concentration of unchanged compound in urine” value in series [2] came out at 125 µM.
With `CSc1cc(C(=O)N2CS(=O)(=O)c3ccccc32)cc(Cl)c1O` [Example 21, 3-(3-chloro-4-hydroxy-5-methylsulfanylbenzoyl)-1,1-dioxo-2,3-dihydro-1,3-benzothiazole], in series [1], the response vs control in vivo at 30 mg/kg came out at 120%. Moreover, in series [2], the “Concentration of unchanged compound in urine” value worked out at 1.9 µM.
With `CSc1cc(C(=O)N2CS(=O)(=O)c3ccccc32)cc(C#N)c1O` [Example 15, 3-(3-cyano-4-hydroxy-5-methylsulfanylbenzoyl)-1,1-dioxo-2,3-dihydro-1,3-benzothiazole], the response vs control in vivo at 30 mg/kg in series [1] came out at 204%. For the same compound, the “Concentration of unchanged compound in urine” value in series [2] was found to be 68.6 µM.
Take `CCc1oc2ccccc2c1C(=O)c1cc(Br)c(O)c(Br)c1` [Benzbromarone, reference compound]: the response vs control in vivo at 30 mg/kg in series [1] stood at 114%. Also, the “Concentration of unchanged compound in urine” value in series [2] is 0 µM.
As to `C#Cc1cc(C(=O)N2CS(=O)(=O)c3ccccc32)cc(C#N)c1O` [Example 14, 3-(3-cyano-5-ethynyl-4-hydroxybenzoyl)-1,1-dioxo-2,3-dihydro-1,3-benzothiazole], the response vs control in vivo at 30 mg/kg in series [1] is 164%. For the same compound, the “Concentration of unchanged compound in urine” value in series [2] was determined as 119 µM.
